Measurements from patent publication US20260184766A1 (priority 2022, published 2026).

Legend:
[1] = biological target: biotinylated RBD (Wuhan-Hu-1) (Severe acute respiratory syndrome coronavirus 2, UniProt P0DTC2)
[2] = system: pseudotyped virus carrying SARS-CoV-2 (Wuhan-Hu-1) wild-type (WT) spike protein; assay type: cell-based; details: for EC50: read-out: Virus Neutralization Pseudovirus (nM) Wild-type
[3] = system: pseudotyped virus carrying S protein of a SARS-CoV-2 delta lineage virus; assay type: cell-based; details: read-out: Virus Neutralization Pseudovirus (nM) Delta
biotinylated RBD = biotinylated RBD (Severe acute respiratory syndrome coronavirus 2, UniProt P0DTC2)

Row | Sequence | binding of coated CDR3-knob to biotinylated RBD, in words [1] | EC50 [2] [nM] | EC50 [3] [nM] | other results
1 | GGSEGDKTCPDGYEHTCGCIGGCGCKRSACIGALCCQASLGGWL [G3 TRUNC3A] | reduced binding |  |  | 
2 | TCPDGYEHTCGCIGGCGCKRSACIGALCCQASLGGWLSD [2G3 Knob] |  | 1.3 ± 0.3 | 71.3 ± 37.2 | 
3 | GGSCPDGYEHTCGCIGGCGCKRSACIGALCCQASLGGWLSD [G3 NTRUNC5] | did not correlate with any reduction in binding activity |  |  | 
4 | HWTCPDGYEHTCGCIGGCGCKRSACIGALCCQASLGGWLSDSF [2G3 knob HWSF] |  | 0.15 ± 0.03 | 21.2 ± 22.9 | 
5 | GGSEGDKTCPDGYEHTCGCIGGCGCKRSACIGALCCQASLGGW [G3 TRUNC3B] | reduced binding |  |  | 
6 | ISTCPDGYEHTCGCIGGCGCKRSACIGALCCQASLGGWLSDTV [2G3 knob ISTV] |  | 0.12 ± 0.03 | 56 ± 7.02 | 
7 | EGDKTCPDGYEHTCGCIGGCGCKRSACIGALCCQASLGGWLSDGETYTYEF [G3 Knob] | showed binding |  |  | neutralization potency of CDR3-knob only antibody, in words [2]: subnanomolar potency; RBD binding relative to reference anti-spike protein antibody CR3022 [1]: increased; binding to RBD after heat and SDS treatment (biotinylated RBD): maintained binding
